Measurements taken from US20240325477A1, “PROTEIN HYDROLYSATE OF MORINGA PEREGRINA SEED CAKE FOR ITS APPLICATION AS A MEDICAMENT, PROCESS FOR OBTAINING SAME AND PHARMACEUTICAL AND DERMATOLOGICAL COMPOSITIONS” (AGENCE FRANCAISE POUR LE DEVELOPPEMENT D'AL ULA, priority 2020, published 2024).
In brackets after ≈: the same amount, converted by molar mass. Like-named read-outs stand apart in the source and are kept apart here. The star is where a group is joined. Decanoyl = CCCCCCCCCC(=O)*; CH2Cl = ClC*

Assays:
recombinant human furin = recombinant human furin (Homo sapiens, UniProt P09958); test: Furin convertase activity, cleavage of fluorescent substrate; type: biochemical; settings: 100 nM
Chain of recombinant human furin (P09958 108-794): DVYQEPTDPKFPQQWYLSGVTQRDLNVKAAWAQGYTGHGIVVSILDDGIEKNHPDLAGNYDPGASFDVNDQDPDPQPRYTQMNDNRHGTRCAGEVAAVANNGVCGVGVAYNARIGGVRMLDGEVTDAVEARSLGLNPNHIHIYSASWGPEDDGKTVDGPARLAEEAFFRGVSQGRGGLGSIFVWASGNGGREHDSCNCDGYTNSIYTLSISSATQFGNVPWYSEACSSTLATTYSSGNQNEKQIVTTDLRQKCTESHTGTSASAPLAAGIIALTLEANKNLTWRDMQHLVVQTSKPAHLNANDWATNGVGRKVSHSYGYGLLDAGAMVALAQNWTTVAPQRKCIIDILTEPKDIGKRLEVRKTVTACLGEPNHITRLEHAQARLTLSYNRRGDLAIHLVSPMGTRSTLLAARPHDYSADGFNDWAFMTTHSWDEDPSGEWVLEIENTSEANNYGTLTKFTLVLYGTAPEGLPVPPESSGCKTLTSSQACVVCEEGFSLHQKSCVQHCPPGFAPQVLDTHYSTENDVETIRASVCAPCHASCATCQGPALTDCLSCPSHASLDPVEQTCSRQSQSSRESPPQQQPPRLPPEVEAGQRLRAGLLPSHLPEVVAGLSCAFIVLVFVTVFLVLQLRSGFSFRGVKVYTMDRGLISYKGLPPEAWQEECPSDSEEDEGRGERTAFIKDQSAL
Method: Protocol: The study was carried out using a recombinant human furin, which catalyzes cleavage of a specific fluorescent reference substrate.
100 nM decanoyl-Arg-Val-Lys-Arg-CMK was used as a reference inhibitor for the activity of furin.
The furin was pre-incubated for 10 minutes at ambient temperature in the absence (control) or in the presence of a reference product, or of increasing concentrations of the test compound:
“Peregrina protein hydrolysate”; 0.02; 0.2 and 2% (v/v).
At the end of the pre-incubation step, a furin substrate was added and the experimental conditions were incubated once again at ambient temperature away from light for 5 minutes. All of the experiments were carried out in triplicate. […]
Cleavage of the fluorescent furin substrate was monitored for 5 minutes after addition of the substrate by reading the fluorescence at 485 nm/535 nm. […]
Evaluation protocol: Cleavage of the fluorescent furin substrate was monitored for 5 minutes after addition of the substrate by recording the fluorescence at 485 nm/535 nm. […]. […] The statistical significance of the difference observed between the “Control” and “Reference product” groups was evaluated by a Student test (p<0.001). The statistical significance of the difference observed between the “Control” and “Test compound” groups was evaluated by a one-way ANOVA, followed by a Holm-Sidak test (p<0.05). […]

DKK-1 = DKK-1 synthesis and release by normal human fibroblasts, ELISA, 48 h; type: cell-based; settings: 100 nM
Method: The aim of this study is to evaluate the effect of the peregrina protein hydrolysate on the synthesis and release of DKK-1 in a model compound of normal human fibroblasts in a monolayer culture.
Protocol: Human fibroblast cells were obtained from a donor. In order to carry out the experiments, the fibroblasts were cultured in a monolayer to confluence. 100 nM dexamethasone was used as a reference inducer for the synthesis and release of DKK-1. The […] were incubated for 48 hours in the absence (control) or in the presence of the reference product or of the test product: “peregrina protein hydrolysate”: 0.01%; 0.1% and 0.5% (v/v).
At the end of the incubation, the incubation media were removed in order to carry out the DKK-1 liberation method. […]
At the end of the incubation period of 48 hours, the DKK-1 liberated into the incubation medium was quantified with the aid of a sensitive and specific ELISA kit.
At the end of the incubation period, the proteins contained in the cell lysates were quantified with the aid of a spectrocolorimetric method (Bradford method). […]
The level of significance between the “control” and the “reference product” was evaluated with the aid of a Student test (p<0.05).
The level of significance between the “Control” and the “test product” was evaluated by a single factor analysis of variance (one-way ANOVA) followed by a Holm-Sidak test (p<0.05).

[1] = tested on: mouse embryo fibroblasts Balb/c 3T3 clone 31; test: In vitro 3T3 NRU phototoxicity test; type: cell-based; settings: BALB/c3T3, light or radiation study, read-out: Cl50 (the source's name)
Description: The principle of the test is the comparison of the cytotoxicity of the protein hydrolysate in accordance with Example 1 in the presence and in the absence of a non-cytotoxic dose of UVA, on cells under culture. […] The cells used were mouse embryo fibroblasts from the Balb/c 3T3 clone 31 (ATCC-CCL163) line. The positive control was a solution of chlorpromazine (CAS number: 69-09-0). The negative control was a diluent for the test and reference extract (buffered saline solution+/−1% solvent). […] The fibroblasts were trypsinized and two 96-well culture plates were inoculated in an amount of 100 μL of a 2×10^5 cells/mL (i.e. 2×10^6 cells per well) cell suspension in complete culture medium. The inoculated plates were incubated in an oven for 24 hours at 37° C., 5% CO2. At the end of the incubation, semi-confluence of the cell mat was verified. […] The spectral irradiation of the test device was measured in the wavelength range 250 to 700 nanometers with a calibrated spectroradiometer.
One of the 2 plates was irradiated with its cover at ambient temperature, and the other plate was protected from UVA and stored at ambient temperature for the irradiation period. […] The next day, the cell viability (growth, morphology, integrity of the monolayer) was evaluated by observations using a phase contrast microscope. […] The absorbances were measured at 450 nm.

Molecule: decanoyl-Arg-Val-Lys-Arg-CMK (Decanoyl-RVKR-CH2Cl)
- Inhibition of the activity of furin (recombinant human furin): 97.9%

Molecule: C[C@@H]1C[C@H]2[C@@H]3CCC4=CC(=O)C=C[C@]4(C)[C@@]3(F)[C@@H](O)C[C@]2(C)[C@@]1(O)C(=O)CO [Dexamethasone, dexamethasone]
- Increase of the DKK-1 liberated compared with the Control (DKK-1): 181.8%

Molecule: CN(C)CCCN1c2ccccc2Sc2ccc(Cl)cc21 [Chlorpromazine, chlorpromazine]
- IC50 ([1]; in the absence of UVA): 7 to 90 µg/mL (≈ 22 to 282 µM)
- IC50 ([1]; in the presence of UVA): 0.1 to 2 µg/mL
